This note sets out measurements from article PMC8954350, “Non-Canonical Cannabinoid Receptors with Distinct Binding and Signaling Properties in Prostate and Other Cancer Cell Types Mediate Cell Death” (International Journal of Molecular Sciences, 2022).

Molecules are shown by their SMILES. Several values for one entry are separate records, joined by “and”; a condition that tells them apart may be missing. Equal entries are not always repeated. Marks after values point to notes of the source that are not given here.

For assay [1], the target named is CBRs expressed in DU-145 membranes. In kind it is binding, human. Here is the method:
(§1) The assay was performed as previously detailed. […] All binding reactions were conducted in triplicate, in a final volume of 1 mL, and, following mixing, were incubated for 20 min in a 37 °C water bath to achieve equilibrium. After incubation, reactions were terminated by rapid vacuum filtration and processed for radioactivity, as detailed in Section 4.5.1.
(§2) Curve-fitting and all statistical analyses were performed using GraphPad Prism® v8.0g (GraphPad Software, Inc.; San Diego, CA, USA). […] For CBR screening studies, a one-sample t-test was performed to determine differences from 100% (e.g., to quantify compounds producing displacement), followed by a one-way ANOVA and Tukey’s post hoc tests to compare displacement produced by all drugs. […] To compare specific CBR affinity (Ki) between ligands, non-linear regression analysis was employed to determine experimental IC50 values from competition receptor binding assays, which were then converted to Ki values using the Cheng–Prusoff equation [35]. Ki values were converted to pKi values so that parametric tests could be used and statistically compared by employing a one-way ANOVA followed by Tukey’s post hoc test. For statistical analyses of [^35S]GTPγS, adenylyl cyclase, and chronic experiments, a one-sample t-test was performed to detect differences from 100% (e.g., basal levels), followed by comparison of all means by a one-way ANOVA and Tukey’s post hoc test. For LDH release, ATP-dependent cell viability and JC-1 staining assays, drug effects were first analyzed by a one-sample t-test to determine differences from 0 or 100% (vehicle), followed by a one-way ANOVA and Dunnett’s post hoc test to compare all means. Significance for all statistical tests was defined at a minimal level of p < 0.05.

Assay [2] has as its target CBRs expressed in PC-3 membranes. In kind it is binding, human. As to the method: as §1, §2
In the next assay the target is T1, human CB1 receptors (Homo sapiens, UniProt P21554).
T1 construct: host or cells: CHO
Description: Competition binding, CHO-hCB1 membranes. The following applies: membranes from CHO cells stably expressing human CB1. As to the method:
as §1
as §2, with “Ki values were converted to pKi values so that parametric tests could be used and statistically compared by employing a one-way ANOVA followed by Tukey’s post hoc test. For statistical analyses of [^35S]GTPγS, adenylyl cyclase, and chronic experiments, a one-sample t-test was performed to detect differences from 100% (e.g., basal levels), followed by comparison of all means by a one-way ANOVA and Tukey’s post hoc test.” left out, “Significance for all statistical tests was defined at a minimal level of p < 0.05.” left out

In assay [3] the test system is DU-145 cells. Nature of the assay: LDH cytotoxicity, DU-145 cells. In kind it is cell-based, human. The following applies: 24 h; for LDH release: 10 μM; for increase in LDH release: 50 μM. Here is the method:
DU-145 cells were seeded at a density of 130 × 10^3 cells/well in 6-well plates and maintained in an incubator at 37 °C with 5% CO2 for 24 h. […] Treated cells were incubated for an additional 24 h, followed by quantification of LDH release. LDH released from damaged or dying cells oxidizes lactate to produce NADH which then reacts with a water-soluble tetrazolium salt (WST) reagent to produce a yellow-colored product. The intensity of the yellow-colored product was detected with an OD reading at 450 nm (quantified by a BioTek microplate reader interfaced with SoftMax Pro 5.4.5 software; Winooski, VT, USA) and was directly proportional to the amount of LDH released. Percent cytotoxicity was calculated according to the manufacturer’s protocol as the following: % Cytotoxicity=OD450 Supernatant/Supernatant+Lysate
On the technique in general: Release of lactate dehydrogenase indicates damage to the cell membrane.

Another assay concerns NPrEC. Nature of the assay: LDH cytotoxicity, NPrEC cells. Format: cell-based. As to conditions: NPrEC immortalized non-cancerous cell line.
In assay [4] the test system is CBRs expressed in PC-3 cells. Nature of the assay: [^3H]CP-55,940 competitive binding screen, PC-3 membranes. Also noted: species or system human. As to conditions: 1 μM ligand, 0.2 nM radioligand. Here is the method: The assay was conducted as previously detailed. […] All binding reactions were conducted in triplicate, in a final volume of 1 mL, and, following mixing, were incubated for 20 min in a 37 °C water bath to achieve equilibrium. After incubation, reactions were terminated by rapid vacuum filtration through Whatman GF/B glass fiber filters (Brandel; Gaithersburg, MD, USA), followed by three washes of 4 mls of ice-cold filtration buffer (50 mM Tris, pH 7.4, and 0.05% bovine serum albumin). Samples were punched out from filter papers into scintillation vials, to which 4 mls of ScintiverseTM-BDR cocktail scintillation fluid (Fisher Scientific; Hampton, NH, USA) was added. Filters were incubated at room temperature for 24 h in scintillation fluid, vortexed, and radioactivity (measured as DPMs) was quantified via a liquid scintillation spectrophotometer (Tri Carb 2100 TR Liquid Scintillation Analyzer, Packard Instruments, Meriden, CT, USA).

Assay [5] deals with CBRs expressed in PC-3 cells. Nature of the assay: Adenylyl cyclase modulation in whole PC-3 cells. In kind it is cell-based, human. As to conditions: 10 μM, with or without pertussis toxin. As to the method:
(§3) These experiments were conducted to examine modulation of adenylyl cyclase activity by cannabinoid ligands in prostate cancer cell lines DU-145 and PC-3, as described earlier. CHO-hCB2, DU-145, or PC-3 cells were seeded into 24 well plates at a density of 8 × 10^6 cells per plate in growth media (DMEM for DU-145 and CHO-hCB2 cells or F12-K for PC-3 cells). Growth media contained FetalPlex (10%) and 1% pennicillin/streptomycin. Cells were cultured overnight in a humidified incubator maintained at 37 °C with 5% CO2. For some experiments, a subset of wells were treated overnight with pertussis toxin (2 μL/mL) to abolish Gi/Go protein-mediated signaling. Following overnight incubation, growth media was replaced with an incubation media containing either DMEM (for DU-145 and CHO-hCB2) or F12-K (for PC-3) with 0.9 g/l NaCl, 2.5 μCi/mL of [^3H]adenine, and 0.5 mM IBMX, and cells were kept in a humidified incubator maintained at 37 °C with 5% CO2 for 4 h. […] Finally, 10 mL of Scintiverse^TM BD Cocktail scintillation fluid (Fisher Scientific; Hampton, NH, USA) was added to eluates and radioactivity (quantified as DPMs) was quantified via a liquid scintillation spectrophotometer (Tri Carb 2100 TR Liquid Scintillation Analyzer, Packard Instruments, Meriden, CT, USA).

Assay [6] deals with CBRs expressed in DU-145 cells. Description: Adenylyl cyclase modulation in whole DU-145 cells. As to conditions: 10 μM, with or without pertussis toxin. Format: cell-based, human. As to the method:
as §3

In assay [7] the test system is DU-145 cells. Description: Mitochondrial membrane potential (JC-1 staining), DU-145 cells. The following applies: 24 h; for mitochondrial membrane potential (MMP) depolarization: JC-1. In kind it is cell-based, human.

T1 sequence (P21554 whole entry): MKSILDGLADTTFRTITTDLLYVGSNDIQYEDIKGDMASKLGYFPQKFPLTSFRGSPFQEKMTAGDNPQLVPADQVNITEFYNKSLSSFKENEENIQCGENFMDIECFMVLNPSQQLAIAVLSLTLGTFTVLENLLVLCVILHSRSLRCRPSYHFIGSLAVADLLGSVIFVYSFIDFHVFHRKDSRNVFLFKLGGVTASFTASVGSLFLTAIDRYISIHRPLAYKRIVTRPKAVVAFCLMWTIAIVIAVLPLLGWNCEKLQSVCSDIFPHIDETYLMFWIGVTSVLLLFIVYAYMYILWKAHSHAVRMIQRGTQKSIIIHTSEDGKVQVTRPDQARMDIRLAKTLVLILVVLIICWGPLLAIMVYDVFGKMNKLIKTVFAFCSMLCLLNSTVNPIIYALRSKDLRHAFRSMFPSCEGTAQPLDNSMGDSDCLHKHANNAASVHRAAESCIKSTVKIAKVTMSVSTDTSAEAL

Consider `COc1ccc2c(c1)c(CCN1CCOCC1)c(C)n2C(=O)c1cccc(Cl)c1Cl` [GW-405833], for which the Ki in assay [1] was ~290 nM and 290 nM; in assay [2], 296 nM; on human CB1 receptors it was 747 nM. For the same molecule, the “pKi (−log Ki)” value in [1] is reported as 6.5 ± 0.12 ^b; in assay [2], 6.47 ± 0.17 ^b. In addition, the LDH release result in the assay on DU-145 cells [3] was “No significant effects”; with NPrEC, 46.4 ± 6.4%. The “increase in LDH release” value in the assay on DU-145 cells [3] is listed as 74.2 ± 4.5%.

As for `Cc1c(C(=O)c2cccc3ccccc23)c2cccc3c2n1[C@H](CN1CCOCC1)CO3` [WIN-55,212-2], the “displacement of [^3H]CP-55,940” value in assay [4] is reported as “neither the non-selective CBR ligand CP-55,940 nor WIN-55,212-2 produced significant displacement”. Also, the “change in forskolin-stimulated intracellular cAMP levels” value in assay [5] and in [6] was “neither WIN-55-212-2 nor rimonabant significantly altered intracellular cAMP levels” throughout. The LDH release entry in the assay on DU-145 cells [3] is on record as “neither low (10 μM) nor high (50 μM) concentrations of WIN-55,212-2, AM-251 or AM-630 altered LDH release”. Further, in the assay with DU-145 cells [3], the “increase in LDH release” value is “neither low (10 μM) nor high (50 μM) concentrations of WIN-55,212-2, AM-251 or AM-630 altered LDH release”. For the same molecule, the “mitochondrial membrane potential (MMP) depolarization” value in the assay on DU-145 cells [7] (10 μM) and with DU-145 cells [7] (50 μM) was “produced effects only at 50 μM” each time.

In the case of `Cc1c(C(=O)NN2CCCCC2)nn(-c2ccc(Cl)cc2Cl)c1-c1ccc(Cl)cc1` [rimonabant], the inhibition constant (Ki) in assay [1] worked out at 102 nM; in [2], 54.1 nM. Besides, the “pKi (−log Ki)” value in assay [1] is listed as 7.04 ± 0.15 ^a. The “change in forskolin-stimulated intracellular cAMP levels” value in [5] and in assay [6] was “neither WIN-55-212-2 nor rimonabant significantly altered intracellular cAMP levels” each time. The LDH release result in the assay with DU-145 cells [3] is reported as “No significant effects”. The “increase in LDH release” value in the assay with DU-145 cells [3] came out at 16.5 ± 3.5%. Also, in the assay on DU-145 cells [3] (co-incubation with 10 μM ligand), the “attenuation of GW-405833 (50 μM)-induced LDH release” value is recorded as “almost completely blocked GW-405833 induced LDH release”. For the same molecule, in the assay on DU-145 cells [7] (10 μM ligand co-incubated), the “MMP on co-incubation with GW-405833 (10 μM)” value is given as “MMP was not significantly reduced from vehicle-treated levels”. Also, in the assay with DU-145 cells [7] (10 μM), the “mitochondrial membrane potential (MMP) depolarization” value is on record as “reduced MMP”.

In general, Ki refers to the equilibrium dissociation constant of an inhibitor or competing ligand from its target. The low end stands for tighter binding, the high end for weaker binding.
